Data on four compounds can be found in US20150197550A1 (UNIVERSITY OF ULSTER, priority 2012, published 2015).

Square brackets hold non-standard residues; d marks the D form. Peptide text beside a SMILES is read from it. Abu = CC[C@H](N)C(=O)O

For data set [1] the following is noted: human, in vivo; cited from earlier work.
Data set [2] can be described thus: Stability on incubation with mouse plasma for 8 h (RP-HPLC peak height). The data set is classed as in vitro ADME. Conditions: mouse, plasma.
Description: The samples were then separated on RP-HPLC and the peak height compared to the value at time=0 hours.

Take Glucagon-like peptide-1 [GLP-1]: the half-life entry in data set [1] was “less than two”. In data set [2], `CSCC[C@H](NC(=O)[C@H](Cc1ccc(O)cc1)NC(=O)[C@H](CCCCN)NC(=O)[C@H](CO)NC(=O)[C@H](Cc1ccc(O)cc1)NC(=O)[C@H](CC(=O)O)NC(=O)[C@H](CO)NC(=O)[C@@H](NC(=O)[C@H](Cc1ccccc1)NC(=O)[C@@H](NC(=O)CNC(=O)[C@H](CCC(=O)O)NC(=O)[C@@H](C)NC(=O)[C@@H](N)Cc1c[nH]cn1)[C@@H](C)O)[C@@H](C)O)C(=O)N[C@@H](CC(=O)O)C(=O)N[C@@H](CC(N)=O)C(=O)N[C@@H](CCCNC(=N)N)C(=O)N[C@@H](CCCNC(=N)N)C(=O)N[C@@H](C)C(=O)N[C@@H](CCCCN)C(=O)N[C@@H](CC(=O)O)C(=O)N[C@@H](Cc1ccccc1)C(=O)N[C@H](C(=O)N[C@@H](CCC(N)=O)C(=O)N[C@@H](Cc1c[nH]c2ccccc12)C(=O)N[C@@H](CC(C)C)C(=O)N[C@@H](CCSC)C(=O)N[C@@H](CC(N)=O)C(=O)N[C@H](C(=O)O)[C@@H](C)O)C(C)C` [(D-Ala^2) dogfish glucagon, (D-A^2) dogfish glucagon] (H-H[dA]EGTFTSDYSKYMDNRRAKDFVQWLMNT-OH; N-terminus and C-terminus assumed) displayed a metabolised at 8 h of 40.1%. The compound `CSCC[C@H](NC(=O)[C@H](Cc1ccc(O)cc1)NC(=O)[C@H](CCCCN)NC(=O)[C@H](CO)NC(=O)[C@H](Cc1ccc(O)cc1)NC(=O)[C@H](CC(=O)O)NC(=O)[C@H](CO)NC(=O)[C@@H](NC(=O)[C@H](Cc1ccccc1)NC(=O)[C@@H](NC(=O)CNC(=O)[C@H](CCC(=O)O)NC(=O)[C@@H](C)NC(=O)[C@@H](N)Cc1c[nH]cn1)[C@@H](C)O)[C@@H](C)O)C(=O)N[C@@H](CC(=O)O)C(=O)N[C@@H](CC(N)=O)C(=O)N[C@@H](CCCNC(=N)N)C(=O)N[C@@H](CCCNC(=N)N)C(=O)N[C@@H](C)C(=O)N[C@@H](CCCCN)C(=O)N[C@H](CC(=O)O)C(=O)N[C@@H](Cc1ccccc1)C(=O)N[C@H](C(=O)N[C@@H](CCC(N)=O)C(=O)N[C@@H](Cc1c[nH]c2ccccc12)C(=O)N[C@@H](CC(C)C)C(=O)N[C@@H](CCSC)C(=O)N[C@@H](CC(N)=O)C(=O)N[C@H](C(=O)O)[C@@H](C)O)C(C)C` [(D-A^2 D-D^21) dogfish glucagon, (D-A^2D-D^21) dogfish glucagon] (H-H[dA]EGTFTSDYSKYMDNRRAK[dD]FVQWLMNT-OH; N-terminus and C-terminus assumed) returned a metabolised at 8 h in data set [2] of 31.7%.

`CC[C@H](NC(=O)[C@@H](N)Cc1c[nH]cn1)C(=O)N[C@@H](CCC(=O)O)C(=O)NCC(=O)N[C@H](C(=O)N[C@@H](Cc1ccccc1)C(=O)N[C@H](C(=O)N[C@@H](CO)C(=O)N[C@@H](CC(=O)O)C(=O)N[C@@H](Cc1ccc(O)cc1)C(=O)N[C@@H](CO)C(=O)N[C@@H](CCCCN)C(=O)N[C@@H](Cc1ccc(O)cc1)C(=O)N[C@@H](CCSC)C(=O)N[C@@H](CC(=O)O)C(=O)N[C@@H](CC(N)=O)C(=O)N[C@@H](CCCNC(=N)N)C(=O)N[C@@H](CCCNC(=N)N)C(=O)N[C@@H](C)C(=O)N[C@@H](CCCCN)C(=O)N[C@@H](CC(=O)O)C(=O)N[C@@H](Cc1ccccc1)C(=O)N[C@H](C(=O)N[C@@H](CCC(N)=O)C(=O)N[C@@H](Cc1c[nH]c2ccccc12)C(=O)N[C@@H](CC(C)C)C(=O)N[C@@H](CCSC)C(=O)N[C@@H](CC(N)=O)C(=O)N[C@H](C(=O)O)[C@@H](C)O)C(C)C)[C@@H](C)O)[C@@H](C)O` [(Abu^2) dogfish glucagon] (H-H[Abu]EGTFTSDYSKYMDNRRAKDFVQWLMNT-OH; N-terminus and C-terminus assumed): the metabolised at 8 h in data set [2] was determined as 58.4%.
